Structures can show the parent of a compound that is named as a salt.
Columns and labels:
Assay type in all cases: in vivo
[1] = tested on: common barnyardgrass (Echinochloa crus-galli); assay: Example 214: greenhouse pot test, spray above the pot 25 days after seeding; conditions: rating 0 to 100; application rate compound X 10 g/ha, chlorimuron-ethyl 16 g/ha; 216 L/ha; 18 days after spraying
Protocol: A formulation was produced by dissolving a predetermined amount of chlorimuron-ethyl in DMF containing 2% Tween 20 (polyoxyethylene (20) sorbitan monolaurate) (called chlorimuron-ethyl formulation).
After filling a plastic pot with soil, common barnyardgrass (Echinochloa crus-galli) was seeded therein and grown in a greenhouse. […] Thereafter, the weeds were grown in the greenhouse for 18 days and the herbicidal effect was estimated.

[2] = tested on: Italian ryegrass (Lolium multiflorum); assay: Example 208: greenhouse pot test, spray above the pot 21 days after seeding; conditions: rating 0 to 100; application rate compound X 15 g/ha, clethodim 53 g/ha; 200 L/ha; evaluated 6 days after spraying
Protocol: The compound X (55 mg) produced in Reference Production Example 1, 76.5 mg of Emulsogen TS290 (polyoxyethylene tristyryl phenyl ether, manufactured by Clariant) and 76.5 mg of Phenylsulfonat CAL (mixture of 70% calcium dodecylbenzenesulfonate and 30% iso-butanol, manufactured by Clariant) were dissolved in Solvesso 200ND (aromatic hydrocarbon, manufactured by Exxon Mobile Corporation) to make 1 ml in total, thus producing an emulsifiable concentrate (hereinafter referred to as formulation X).
After filling a plastic pot with soil, Italian ryegrass (Loliism multiflorum) was seeded therein and grown in a greenhouse.

[3] = tested on: common barnyardgrass (Echinochloa crus-galli); assay: Example 215: greenhouse pot test, spray above the pot 25 days after seeding; conditions: rating 0 to 100; application rate compound X 10 g/ha, mesotrione 35 g/ha; 216 L/ha; 18 days after spraying
Protocol: A formulation was produced by dissolving a predetermined amount of mesotrione in DMF containing 2% Tween 20 (polyoxyethylene (20) sorbitan monolaurate) (called mesotrione formulation).
(§1) After filling a plastic pot with soil, common barnyardgrass (Echinochloa crus-galli) was seeded therein and grown in a greenhouse. […] Thereafter, the weeds were grown in the greenhouse for 18 days and the herbicidal effect was evaluated.

[4] = tested on: common barnyardgrass (Echinochloa crus-galli); assay: Example 216: greenhouse pot test, spray above the pot 25 days after seeding; conditions: rating 0 to 100; application rate compound X 10 g/ha, metribuzin 105 g/ha; 216 L/ha; 18 days after spraying
Protocol: A formulation was produced by dissolving a predetermined amount of metribuzin in DMF containing 2% Tween 20 (polyoxyethylene (20) sorbitan monolaurate) (called metribuzin formulation).
as §1

[5] = tested on: Italian ryegrass (Lolium multiflorum); assay: Example 212: greenhouse pot test, spray above the pot 21 days after seeding; conditions: rating 0 to 100; application rate compound X 15 g/ha, glyphosate potassium salt 630 g/ha; 200 L/ha; evaluated 6 days after spraying
Protocol: (§2) After filling a plastic pot with soil, Italian ryegrass (Lolium multiflorum) and giant foxtail (Setaria faberi) were seeded therein and grown in a greenhouse.

[6] = tested on: giant foxtail (Setaria faberi); assay: as above; conditions: rating 0 to 100; application rate compound X 15 g/ha, glyphosate potassium salt 630 g/ha; 200 L/ha; evaluated 6 days after spraying
Protocol: as §2

[7] = tested on: Italian ryegrass (Lolium multiflorum); assay: Example 209: greenhouse pot test, spray above the pot 21 days after seeding; conditions: rating 0 to 100; application rate compound X 15 g/ha, pendimethalin 560 g/ha; 200 L/ha; evaluated 6 or 8 days after spraying
Protocol: as §2

[8] = tested on: giant foxtail (Setaria faberi); assay: as above; conditions: rating 0 to 100; application rate compound X 15 g/ha, pendimethalin 560 g/ha; 200 L/ha; evaluated 6 or 8 days after spraying
Protocol: as §2

[9] = tested on: Italian ryegrass; assay: Example 213: greenhouse pot test, spray above the pot 21 days after seeding; conditions: rating 0 to 100; application rate compound X 15 g/ha, glufosinate ammonium salt 297 g/ha; 200 L/ha; evaluated 8 days after spraying
[10] = tested on: common barnyardgrass (Echinochloa crus-galli); assay: Example 218: greenhouse pot test, spray above the pot 25 days after seeding; conditions: rating 0 to 100; application rate (table) compound X 10 g/ha, pyroxasulfone 40 g/ha; 216 L/ha; 18 days after spraying
Protocol: A formulation was produced by dissolving a predetermined of pyroxasulfone in DMF containing 2% Tween 20 (polyoxyethylene (20) sorbitan monolaurate) (called pyroxasulfone formulation).
as §1

[11] = tested on: common barnyardgrass (Echinochloa crus-galli); assay: Example 217: greenhouse pot test, spray above the pot 25 days after seeding; conditions: rating 0 to 100; application rate (table) compound X 10 g/ha, flumioxazin 30 g/ha; 216 L/ha; 18 days after spraying
Protocol: A formulation was produced by dissolving a predetermined amount of flumioxazin in DMF containing 2% Tween 20 (polyoxyethylene (20) sorbitan monolaurate) (called flumioxazin formulation).
as §1

CCOC(=O)c1ccccc1S(=O)(=O)NC(=O)Nc1nc(Cl)cc(OC)n1 [Chlorimuron-ethyl, chlorimuron-ethyl]
Herbicidal effect on common barnyardgrass (observed value) [1]: 45

CCSC(C)CC1CC(=O)C(/C(CC)=N/OC/C=C/Cl)=C(O)C1 (stereo not shown) [Clethodim, clethodim]
Herbicidal effect on Italian ryegrass (observed value) [2]: 10

CCOC(=O)COC(=O)C1(Oc2cc(-n3c(=O)cc(C(F)(F)F)n(C)c3=O)c(F)cc2Cl)CC1 [Compound X]
Herbicidal effect on common barnyardgrass (observed value) [3]: 45
Herbicidal effect on common barnyardgrass (observed value) [4]: 45
Herbicidal effect on Italian ryegrass (observed value) [5]: 20
Herbicidal effect on giant foxtail (observed value) [6]: 70
Herbicidal effect on common barnyardgrass (observed value) [1]: 45
Herbicidal effect on Italian ryegrass (observed value) [7]: 20
Herbicidal effect on giant foxtail (observed value) [8]: 70
Herbicidal effect on Italian ryegrass (observed value) [9]: 20
Herbicidal effect on common barnyardgrass (observed value) [10]: 45
Herbicidal effect on Italian ryegrass (observed value) [2]: 20
Herbicidal effect on common barnyardgrass (observed value) [11]: 45

C#CCN1C(=O)COc2cc(F)c(N3C(=O)C4=C(CCCC4)C3=O)cc21 [Flumioxazin, flumioxazin]
Herbicidal effect on common barnyardgrass (observed value) [11]: 55

CP(=O)(O)CCC(N)C(=O)O (stereo not shown) [Glufosinate ammonium salt, glufosinate ammonium salt]
Herbicidal effect on Italian ryegrass (observed value) [9]: 80

O=C(O)CNCP(=O)(O)O [Glyphosate potassium salt, glyphosate potassium salt]
Herbicidal effect on Italian ryegrass (observed value) [5]: 50
Herbicidal effect on giant foxtail (observed value) [6]: 40

CS(=O)(=O)c1ccc(C(=O)C2C(=O)CCCC2=O)c([N+](=O)[O-])c1 [Mesotrione, mesotrione]
Herbicidal effect on common barnyardgrass (observed value) [3]: 40

CSc1nnc(C(C)(C)C)c(=O)n1N [Metribuzin, metribuzin]
Herbicidal effect on common barnyardgrass (observed value) [4]: 8

CCC(CC)Nc1c([N+](=O)[O-])cc(C)c(C)c1[N+](=O)[O-] [Pendimethalin, pendimethalin]
Herbicidal effect on Italian ryegrass (observed value) [7]: 0
Herbicidal effect on giant foxtail (observed value) [8]: 0

Cn1nc(C(F)(F)F)c(CS(=O)(=O)C2=NOC(C)(C)C2)c1OC(F)F [Pyroxasulfone, pyroxasulfone]
Herbicidal effect on common barnyardgrass (observed value) [10]: 2

— US20240049711A1, “HERBICIDE COMPOSITION AND WEED CONTROLLING METHOD” (SUMITOMO CHEMICAL COMPANY, LIMITED, priority 2020, published 2024)
